Measured values: US7291600B2, “Non-T cell binding peptides and their uses” (priority 2002, dated 2007)
Where “and” joins values, the source holds several entries; their conditions need not be identical. Identical values can stand only once. Entries after “also recorded” stand apart in the source; their conditions may differ. No end group written: not given here. *: point of attachment. Myristoyl = CCCCCCCCCCCCCC(=O)*

Legend:
[1] = system: T cell activation (L57.23 cell with 3.19 cell; Priess cell with 3838 cell); test: T cell activation assay: antigen presenting cells, peptide and T cell clones co-incubated; IL-2 in supernatant read by CTLL proliferation (MTT); assay type: cell-based; details: FIG. 3; for effect (stimulation) on T cell activation compared with wild type CII peptide: peptide alone with antigen presenting cells and T cells, 48 hours
Description: Antigen polypeptides are expressed through antigen presenting cells and activate T cells, resulting in the production of inflammation factors in vivo, and further resulting in the typical pathologic changes of rheumatoid arthritis. In the experiment, the inhibition effects of non-T cell binding peptides on T cell activation were detected by measuring T cell proliferation and Interleukin (IL)-2 level. Two sets of systems of antigen presenting and T cell activation, which are recognized internationally, are used in the research.
Wherein one set of antigen presenting and T cell activation system is composed of L57.23 cell and 3.19 cell, and the other set of system is composed of Priess cell and 3838 cell. By comparing the difference in the effects of said seven non-T cell binding peptides on antigen presenting and T cell activation, non-T cell binding peptides which have significant inhibition effect(s) on T cell activation were screened.
Firstly, the antigen presenting cells, different non-T cell binding peptides (10 μg/ml) and corresponding T cells were added into the reaction system and co-incubated at 37° C. for 48 hours. The supernatant was obtained and added into well-grown IL-2 dependent cells (CTLL). The CTLL cell proliferation was detected by using titrazolium salt method (MTT). Thus the inhibition effects of non-T cell binding peptides on T cell activation were determined.

[2] = system: T cell activation (L57.23 cell with 3.19 cell; Priess cell with 3838 cell); test: as above; assay type: cell-based; details: for inhibition of the T cell activation effects of wild type DRβ1 binding peptide: co-incubated with wild type peptide and T cell activation system, concentration dependent, FIG. 4
[3] = system: collagen-induced arthritis (CIA) in Wistar rats; test: Collagen-induced arthritis (CIA) induced by bovine CII, treated by subcutaneous peptide injection; assay type: in vivo; details: for suppression / alleviation of arthritis in rats: CIA rats, result in words
Protocol: In the animal experiment protocol of the present invention, collagen-induced arthritis (CIA) in Wistar rats was induced by bovine CII. The non-T cell binding peptides of the present invention were used to treat the arthritis rats.
The experimental arthritis model used in the present invention is collagen-induced arthritis (CIA) which is recognized internationally. The experimental animals used were American Wistar rats, which belong to a blocking colony. They were cultured successfully by Wistar Institute of USA in 1907. They are among the species that were introduced into our country earliest and were used most widely. The rats used in this experiment were all cultured in the animal center of People's Hospital, Peking University (SPF degree II). The rats were cultured in the polyacylene cages cushioned by serrago. The lightness/darkness cycle was maintained as 12 h/12 h. The water and food were freely available to the rats. All the rats used in the experiment were male, 8-10 weeks of age, body weight 180±10 g. All the protocols related to animals in the experiment were in accordance with Chinese Experimental Animal Regulations.
The bovine type II collagen (catalogue number: C11188) was bought from Sigma Co. Ltd. It was dissolved in acetic acid to make a solution with the final concentration of 8 mg/ml. Then the solution was emulsified with complete Freund's adjuvant (Detroit, USA) of the equal volume. 100 μl of the emulsified solution was injected into the footpad of the right limb of each Wistar rat. The injection dose was […]. Thus the arthritis model of Wistar rats was successfully established.
The swelling of metatarsophalangeal joints and interphalangeal joints was found on all the rats about 15 days after the induction of arthritis in Wistar rats with CII. A 0-16 scale was used to evaluate the extent of arthritis. Each of the 4 paws was assigned a score using a 0-4 scale, wherein zero=no joint swelling, 1=swelling of one joint, 2=swelling of 2 joints, 3=swelling of 3 joints, and 4=swelling of 4 joints, which is the swelling of the whole paw. Four paws were scored respectively, and these scores were summed up to give a total score. Beginning 2 days after the immunization, the rats were subjected to an inspection every day until the experiment had been finished.
(§1) The arthritis rats were randomly divided into 4 groups from Day 4 to Day 7 after arthritis induced therein. There were 3 treatment groups and one control group. Each group consisted of 10 rats. Non-T cell binding peptide 267A was subcutaneously injected into the base of tail of each rat every 3 days. The peptides were dissolved in sterile distilled water before injection. The concentrations used in the 3 treatment groups were 100 μg/ml, 500 μg/ml and 1000 μg/ml respectively, 100 μl for each rat, and the control group received sterile distilled water only. The volume change of right feet was measured by water-expelling method every day. Using the aforementioned method of arthritis evaluation, the arthritis scores were given every day based on the number of joints with arthritis. The rats were killed 18 days after treatment. The peripheral blood was collected. The serum concentrations of the respective cytokines were detected using ELISA kits of TNFα and IL-2 (JingMei Biotech Co. Ltd, ShenZhen, P.R.C). In the meanwhile, the joints of the right limb were detached, fixed, decalcified, sectioned and subjected to HE staining.

[4] = system: TNFα; test: TNFα concentration in peripheral blood of CIA rats (ELISA); assay type: in vivo, Wistar rats
Protocol: as §1

[5] = system: collagen-induced arthritis (CIA) in Wistar rats; test: Collagen-induced arthritis (CIA) induced by bovine CII, treated by subcutaneous peptide injection; assay type: in vivo; details: for number of swollen joints, Average: * significantly reduced compared with the control group (p < 0.01), control 6.2
[6] = 50 mg group, right hind foot, individual rats
[7] = Day 8, 10, 12 and 14, three treatment groups 100, 500, 1000 μg/ml, 100 μl s.c. every 3 days
[8] = 10 mg group, right hind foot, individual rats

## FKGEQAGAGE (Myristoyl-FKGEQAGAGE) [Mut 268-270, amino-terminal linked to myristic acid]
[1]
  effect (stimulation) on T cell activation compared with wild type CII peptide: none of polypeptides Mut 267-270, Mut 268-270, Mut 269-270, 269A and 270A has significant effect on T cell activation

## wild type DRβ1 binding peptide: wild type CII263-272 polypeptide (F K G E Q G P K G E), contains the antigen epitope of Collagen type II (FKGEQGPKGE) [reference compound]
[2]; at 400, 200, 80, 40 and 20 μg/ml
  stimulation of T cell proliferation: able to stimulate T cell proliferation
[1]; non-T cell binding peptides compared with wild type peptide, p<0.01
  concentration of IL-2 in the supernatant: high concentration of IL-2

## FKGEAGPKGE (Myristoyl-FKGEAGPKGE) [267A, amino-terminal linked to myristic acid]
[3]; [6]
  number of swollen joints: 4 (2×) and 6 (2×) and 2 and 1 (3×) and 3 (2×)
[3]; 3 treatment groups, within the first 2 weeks after treatment
  swelling of the right feet: alleviated
[3]; 100, 500 and 1000 μg/ml groups, Day 8, 10, 12 and 14
  difference among the 3 treatment groups in right foot swelling ratios and arthritis scores: no significant difference
[3]
  suppression / alleviation of arthritis in rats: significant effects; also recorded: significantly suppress arthritis in rats and alleviate the swelling of joints, and shorten the disease course; also recorded: significantly alleviated
[3]; [7]
  arthritis score vs control group: significantly lower
  swelling ratio of right feet vs control group: significantly lower
[3]; three treatment groups, Day 8 and Day 16 after treatment, p<0.05
  remission ratio of CIA vs control group: remission ratio(s) of CIA in the control group are significantly lower than that in the three treatment groups; also recorded: significantly higher
[2]
  inhibition of the T cell activation effects of wild type DRβ1 binding peptide: significant effects
[4]; 100 μg/ml treated group, p<0.05, FIG. 7
  concentration of TNFα in peripheral blood vs control group: significantly lower
[4]; the other two treatment groups (500 and 1000 μg/ml)
  concentration of TNFα in peripheral blood vs control group: No significant variety
[5]; 10 mg group average
  number of swollen joints, Average: 3.15*
[5]; [8]
  Hind foot volume: 1.2 ml (2×) and 1.5 ml and 1.4 ml and 1.3 ml (5×) and 1.1 ml
  number of swollen joints: 2 (2×) and 4 (3×) and 3 (2×) and 1 (2×) and 6
[5]; 50 mg group average
  number of swollen joints, Average: 3.25*
[5]; [6]
  Hind foot volume: 1.4 ml (5×) and 1.7 ml and 1.3 ml and 1.1 ml and 1.6 ml (2×)

## FKGEQGAKGE (Myristoyl-FKGEQGAKGE) [269A, amino-terminal linked to myristic acid]
[1]
  effect (stimulation) on T cell activation compared with wild type CII peptide: none of polypeptides Mut 267-270, Mut 268-270, Mut 269-270, 269A and 270A has significant effect on T cell activation

## FKGEQGPAGE (Myristoyl-FKGEQGPAGE) [270A, amino-terminal linked to myristic acid]
[1]
  effect (stimulation) on T cell activation compared with wild type CII peptide: none of polypeptides Mut 267-270, Mut 268-270, Mut 269-270, 269A and 270A has significant effect on T cell activation

## FKGEQGAAGE (Myristoyl-FKGEQGAAGE) [Mut 269-270, amino-terminal linked to myristic acid]
[1]
  effect (stimulation) on T cell activation compared with wild type CII peptide: none of polypeptides Mut 267-270, Mut 268-270, Mut 269-270, 269A and 270A has significant effect on T cell activation

## FKGEGAGAGE (Myristoyl-FKGEGAGAGE) [Mut 267-270, amino-terminal linked to myristic acid]
[3]
  suppression / alleviation of arthritis in rats: significant effects
[2]
  inhibition of the T cell activation effects of wild type DRβ1 binding peptide: significant effects
[1]
  effect (stimulation) on T cell activation compared with wild type CII peptide: none of polypeptides Mut 267-270, Mut 268-270, Mut 269-270, 269A and 270A has significant effect on T cell activation
